# Assay results as given in US20260146274A1, “RECOMBINANT SMALL-MOLECULE COLLAGEN, EXPRESSION SYSTEM THEREOF, AND PREPARATION METHOD THEREOF” (JIANGSU TRAUTEC MEDICAL TECHNOLOGY CO., LTD., priority 2023, published 2026).
# System: NIH/3T3 cell
# Assay: Cell adhesion activity detection (LDH kit, OD492 nm)
# Assay type: cell-based
# Settings: for cell adhesion activity (absorbance at OD492 nm) compared with natural human collagen: protein coated at 0.5 mg/mL, NIH/3T3 cells, 60 minutes, FIG. 26
# Experimental: References for Detection Method for Cell Adhesion Activity of Recombinant Small-Molecule Collagen: Juming Yao, Satoshi Yanagisawa, Tetsuo Asakura. Design, Expression and Characterization of Collagen-Like Proteins Based on the Cell Adhesive and Crosslinking Sequences Derived from natural Collagens, J Biochem. 136, 643-649 (2004).
# Specific implementation method: A NIH/3T3 cell was cultured under standard conditions (purchased from Cell Bank of the Chinese Academy of Sciences, with catalog number of GNM6. Culture and passage methods followed a cell instruction). […] A natural human collagen (Sigma, Catalog No. C7774) was compared to a bovine serum albumin solution (BSA, purchased from Sangon Biotech (Shanghai) Co., Ltd.) (in ultrapure water or 1M HCl solution). Protein concentration was determined using the UV protein quantification empirical formula: C (mg/mL)=0.144×(A215-A225). Then, the protein was diluted to 0.5 mg/mL with PBS (pH 7.4).
# 100 μL of various protein solutions and blank PBS solution were added to a 96-well cell culture plate, and set aside 60 minutes at room temperature. Then, […] NIH/3T3 cells with good culture status were added to each well, and incubated at 37° C. and 5% CO2 for 60 minutes. The cells were cleaned in the wells 4 times with PBS. An absorbance value at OD492 nm was detected using a LDH detection kit (Roche, 04744926001). Data were analyzed and subject to significant differential analysis (SPSS 22 software, Duncan's method, P<0.05).
# The absorbance value at OD492 nm characterized the cell adhesion activity of a collagen sample: higher adhesion activity indicated more cells adhering to the protein.
# [1] = equivalent concentrations (0.5 mg/mL), NIH/3T3, Duncan's method P<0.05
Molecule,cell adhesion activity compared with larger-molecular-weight recombinant type-XVII collagen [1],cell adhesion activity (absorbance at OD492 nm) compared with natural human collagen,cell adhesion activity compared with larger-molecular-weight recombinant type-III collagen [1]
"17S1NNT: 82 amino acids, positions 636 to 718 of full-length human collagen XVII, SEQ ID NO.5",no significant difference,comparable to or superior to that of a natural human collagen,–
"3A5D1NT: 96 amino acids, positions 990 to 1085 of full-length human type III collagen, SEQ ID NO.1 (protein, listed as Homo sapiens, Recombinant small-molecule collagen 3A5D1NT) DGNPGSDGLPGRDGSPGGKGDRGENGSPGAPGAPGHPGPPGPVGPAGKSGDRGESGPAGPAGAPGPAGSRGAPGPQGPRGDKGETGERGAAGIKGH",–,comparable to or superior to that of a natural human collagen,significantly outperformed
